Measured values from PubChem BioAssay AID1963984 (Molecular Pharmacology Branch, DTP, NCI, 2024).

Tested on: 233499-124-R-J3-PDC spheroids with HUVEC/MSC, viability
Assay: Anticancer human tumor 233499-124-R-J3-PDC patient-derived colon adenocarcinoma cell line growth inhibition [PI3K]
Settings: for viability, T/C: stronger effect = lower value
Method in brief: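 Complex 3D spheroids (cancer cells + endothelial HUVEC + mesenchymal stem cells); drug pairs of targeted agent x inavolisib/alpelisib/duvelisib/copanlisib; half-log series from ~Cmax, max 10 microM if Cmax unknown; endpoint viability.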

[1] = curve of first compound, second compound 0.0316 µM
[2] = curve of first compound, second compound 0.1 µM
[3] = curve of first compound, second compound 0.316 µM
[4] = curve of first compound, second compound 1 µM
[5] = curve of first compound, second compound 3.16 µM
[6] = curve of first compound, second compound 10 µM
[7] = second compound 0.0316 µM, first compound 0.0316 µM
[8] = second compound 0.0316 µM, first compound 0.1 µM
[9] = second compound 0.0316 µM, first compound 0.316 µM
[10] = second compound 0.0316 µM, first compound 1 µM
[11] = second compound 0.0316 µM, first compound 3.16 µM
[12] = second compound 0.0316 µM, first compound 10 µM
[13] = second compound 0.1 µM, first compound 0.0316 µM
[14] = second compound 0.1 µM, first compound 0.1 µM
[15] = second compound 0.1 µM, first compound 0.316 µM
[16] = second compound 0.1 µM, first compound 1 µM
[17] = second compound 0.1 µM, first compound 3.16 µM
[18] = second compound 0.1 µM, first compound 10 µM
[19] = second compound 0.316 µM, first compound 0.0316 µM
[20] = second compound 0.316 µM, first compound 0.1 µM
[21] = second compound 0.316 µM, first compound 0.316 µM
[22] = second compound 0.316 µM, first compound 1 µM
[23] = second compound 0.316 µM, first compound 3.16 µM
[24] = second compound 0.316 µM, first compound 10 µM
[25] = second compound 1 µM, first compound 0.0316 µM
[26] = second compound 1 µM, first compound 0.1 µM
[27] = second compound 1 µM, first compound 0.316 µM
[28] = second compound 1 µM, first compound 1 µM
[29] = second compound 1 µM, first compound 3.16 µM
[30] = second compound 1 µM, first compound 10 µM
[31] = second compound 3.16 µM, first compound 0.0316 µM
[32] = second compound 3.16 µM, first compound 0.1 µM
[33] = second compound 3.16 µM, first compound 0.316 µM
[34] = second compound 3.16 µM, first compound 1 µM
[35] = second compound 3.16 µM, first compound 3.16 µM
[36] = second compound 3.16 µM, first compound 10 µM
[37] = second compound 10 µM, first compound 0.0316 µM
[38] = second compound 10 µM, first compound 0.1 µM
[39] = second compound 10 µM, first compound 0.316 µM
[40] = second compound 10 µM, first compound 1 µM
[41] = second compound 10 µM, first compound 3.16 µM
[42] = second compound 10 µM, first compound 10 µM
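Further: spheroids exposed to agents for seven days before readout.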
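Wherever viability, T/C is given: percent viability relative to DMSO vehicle control taken as 100%.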

In the case of `Cn1ncnc1[C@H]1c2n[nH]c(=O)c3cc(F)cc(c23)N[C@@H]1c1ccc(F)cc1`, the viability, T/C (compound 0.000316 µM) is reported as 100% [middle of 4 runs], the viability, T/C (compound 0.001 µM) is reported as 99.6% [middle of 4 runs] and the viability, T/C (compound 0.0316 µM) is reported as 103% [middle of 4 runs]. The viability, T/C (compound 0.1 µM) was 89% [middle of 4 runs] and the IC50 (curve of compound) was > 0.1 µM.
In the case of `Cn1nccc1Nc1nccc(-c2ccn(C(CO)c3ccc(Cl)c(F)c3)c(=O)c2)n1` (configuration not stated), the viability, T/C (compound 0.1 µM) is reported as 100% [middle of 4 runs], the viability, T/C (compound 10 µM) is reported as 71.2% [middle of 4 runs] and the IC50 (curve of compound) is reported as > 10 µM.
Work on `Cn1ncc(Cl)c1-c1cc(C(=O)NC(CN)Cc2cccc(F)c2)sc1Cl` (configuration not stated) + Cc1nc(NC(=O)N2CCCC2C(N)=O)sc1-c1ccnc(C(C)(C)C(F)(F)F)c1 yielded an IC50 [1] of 5.53 µM, an IC50 [2] of 3.31 µM and an IC50 [3] of 4.03 µM. The IC50 [4] was 2.63 µM, the IC50 [5] was 0.558 µM and the IC50 [6] was < 0.0316 µM. It also gave a viability, T/C [7] of 110%, a viability, T/C [8] of 90.8% and a viability, T/C [9] of 87.1%. The viability, T/C [10] was 77.2%, the viability, T/C [11] was 70% and the viability, T/C [12] was 34.1%. For the same molecule, the viability, T/C [13] was 102%, the viability, T/C [14] was 86.6% and the viability, T/C [15] was 82.8%. It also gave a viability, T/C [16] of 57.2%, a viability, T/C [17] of 53.5% and a viability, T/C [18] of 39.3%. For the same molecule, the viability, T/C [19] was 85.3%, the viability, T/C [20] was 94% and the viability, T/C [21] was 76.2%. The viability, T/C [22] was 64.4%, the viability, T/C [23] was 62.1% and the viability, T/C [24] was 27.7%. It also gave a viability, T/C [25] of 81.9%, a viability, T/C [26] of 74.3% and a viability, T/C [27] of 72.7%. For the same molecule, the viability, T/C [28] was 75.2%, the viability, T/C [29] was 45.3% and the viability, T/C [30] was 18.7%. For the same molecule, the viability, T/C [31] was 62%, the viability, T/C [32] was 69.9% and the viability, T/C [33] was 55.3%. The viability, T/C [34] was 38.1%, the viability, T/C [35] was 35.3% and the viability, T/C [36] was 14.4%. The viability, T/C [37] was 29.3%, the viability, T/C [38] was 29.4% and the viability, T/C [39] was 23%. It also gave a viability, T/C [40] of 25.5%, a viability, T/C [41] of 30% and a viability, T/C [42] of 2.94%.
With `C=CC(=O)N1CCN(c2nc(=O)n(-c3c(C)ccnc3C(C)C)c3nc(-c4c(O)cccc4F)c(F)cc23)C(C)C1` (configuration not stated) + Cc1nc(NC(=O)N2CCCC2C(N)=O)sc1-c1ccnc(C(C)(C)C(F)(F)F)c1 the IC50 [1] was > 10 µM, the IC50 [2] was > 10 µM and the IC50 [3] was > 10 µM. For the same molecule, the IC50 [4] was > 10 µM, the IC50 [5] was < 0.0316 µM and the IC50 [6] was < 0.0316 µM. It also gave a viability, T/C [7] of 89.3%, a viability, T/C [8] of 94.8% and a viability, T/C [9] of 99.3%. The viability, T/C [10] was 106%, the viability, T/C [11] was 100% and the viability, T/C [12] was 85%. It also gave a viability, T/C [13] of 84.8%, a viability, T/C [14] of 96.3% and a viability, T/C [15] of 93%. The viability, T/C [16] was 81.4%, the viability, T/C [17] was 79.5% and the viability, T/C [18] was 80.2%. The viability, T/C [19] was 95.2%, the viability, T/C [20] was 96.7% and the viability, T/C [21] was 70.1%. The viability, T/C [22] was 82.2%, the viability, T/C [23] was 67.5% and the viability, T/C [24] was 92.6%. For the same molecule, the viability, T/C [25] was 71.7%, the viability, T/C [26] was 92.2% and the viability, T/C [27] was 79.4%. The viability, T/C [28] was 77.3%, the viability, T/C [29] was 80.9% and the viability, T/C [30] was 79.8%. It also gave a viability, T/C [31] of 39.4%, a viability, T/C [32] of 51.1% and a viability, T/C [33] of 71.8%. The viability, T/C [34] was 34.1%, the viability, T/C [35] was 60.9% and the viability, T/C [36] was 67.9%. For the same molecule, the viability, T/C [37] was 24%, the viability, T/C [38] was 41.6% and the viability, T/C [39] was 24.9%. It also gave a viability, T/C [40] of 41.8%, a viability, T/C [41] of 37.6% and a viability, T/C [42] of 27.2%.
